In patent publication US8952024B2, “Herbicidal pyrimidone derivatives” (E I du Pont de Nemours and Company, priority 2009, dated 2015):

Experiments:
Assay type in all cases: in vivo
[1] = test system: winter barley (Hordeum vulgare); assay: Test B postemergence plant response
Summary of the method: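 Plants grown in peat/vermiculite medium were sprayed postemergence at 2–18 cm height (1- to 4-leaf stage). After 13–15 days in the greenhouse, response was rated visually against untreated controls on a 0–100 scale (0 no effect, 100 complete control).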

[2] = test system: ducksalad (Heteranthera limosa); assay: Test B flooded paddy test; details: for Plant response rating, Flood, Ducksalad: 250 g ai/ha, flooded paddy test, visual rating on 0 to 100 scale (0 no effect, 100 complete control) after 13 to 15 days; for Plant response rating, Ducksalad: Flood (flooded paddy test), 13 to 15 days
Summary of the method: (§1)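 Each compound is added to standing floodwater (3 cm above soil, maintained) in pots of 2-leaf-stage plants; greenhouse exposure lasts 13–15 d before visual comparison with controls on a 0–100 control scale.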

rice (Oryza sativa) = assay: Test B flooded paddy test; details: for Plant response rating, Flood, Rice: 250 g ai/ha, flooded paddy test, visual rating on 0 to 100 scale (0 no effect, 100 complete control) after 13 to 15 days; for Plant response rating, Rice: Flood (flooded paddy test), 13 to 15 days
Summary of the method: as §1

[3] = test system: barnyardgrass (Echinochloa crus-galli); assay: Test B flooded paddy test; details: for Plant response rating, Flood, Barnyardgrass: 250 g ai/ha, flooded paddy test, visual rating on 0 to 100 scale (0 no effect, 100 complete control) after 13 to 15 days; for Plant response rating, Barnyardgrass: Flood (flooded paddy test), 13 to 15 days
Summary of the method: as §1

[4] = test system: umbrella sedge (Cyperus difformis); assay: Test B flooded paddy test; details: for Plant response rating, Flood, Sedge, Umbrella: 250 g ai/ha, flooded paddy test, visual rating on 0 to 100 scale (0 no effect, 100 complete control) after 13 to 15 days; for Plant response rating, Sedge, Umbrella: Flood (flooded paddy test), 13 to 15 days
Summary of the method: as §1

[5] = test system: wheat (Triticum aestivum); assay: Test A pre-/postemergence plant response
Summary of the method: (§2)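 Visual injury rating on a 0–100 scale (0 = no effect, 100 = complete control) was made versus untreated controls after about ten days in the greenhouse. Compounds, formulated in a non-phytotoxic solvent mix containing surfactant, were sprayed preemergence onto loam/sand soil and postemergence onto one- to two-leaf plants.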

[6] = test system: pigweed (Amaranthus retroflexus); assay: Test A pre-/postemergence plant response
Summary of the method: as §2

[7] = test system: morningglory (Ipomoea spp.); assay: Test A pre-/postemergence plant response
Summary of the method: as §2

[8] = test system: large crabgrass (Digitaria sanguinalis); assay: Test A pre-/postemergence plant response
Summary of the method: as §2

[9] = test system: velvetleaf (Abutilon theophrasti); assay: Test A pre-/postemergence plant response
Summary of the method: as §2

[10] = test system: barnyardgrass (Echinochloa crus-galli); assay: Test A pre-/postemergence plant response
Summary of the method: as §2

corn (Zea mays) = assay: Test A pre-/postemergence plant response
Summary of the method: as §2

[11] = test system: giant foxtail (Setaria faberii); assay: Test A pre-/postemergence plant response
Summary of the method: as §2

[12] = 31 g ai/ha, postemergence, scale 0 to 100, 0 is no effect, 100 is complete control
[13] = Postemergence, 62 g ai/ha, scale 0 (no effect) to 100 (complete control), 13 to 15 days
[14] = Postemergence, 125 g ai/ha, visual rating after 13 to 15 days, scale 0 (no effect) to 100 (complete control)
[15] = 31 g ai/ha, scale of 0 to 100 where 0 is no effect and 100 is complete control
[16] = 62 g ai/ha, scale of 0 to 100 where 0 is no effect and 100 is complete control
[17] = 125 g ai/ha, scale 0 to 100, 0 is no effect, 100 is complete control
[18] = Postemergence, 125 g ai/ha, visual injury, 0 to 100 scale (0 no effect, 100 complete control), approx. ten days
[19] = Postemergence, 500 g ai/ha, 0 to 100 scale, 0 = no effect, 100 = complete control, approx. ten days
[20] = Preemergence, 125 g ai/ha, 0 to 100 scale, 0 = no effect, 100 = complete control
[21] = Preemergence, 500 g ai/ha, visual injury, 0 to 100 scale (0 no effect, 100 complete control), approx. ten days

Cn1c(-c2ccccc2)ncc(C(=O)C2=C(O)CCCC2=O)c1=O [Compound 55]
90: Pigweed plant response rating [6, 18] | Morningglory plant response rating [7, 18] | Plant response rating, Morningglory [7, 19] | Plant response rating, Crabgrass, Large [8, 19]
0: Plant response rating, Barley [1, 12] | Plant response rating, Barley [1, 13] | Plant response rating, Barley [1, 14] | Plant response rating, Barley ([1]; Postemergence, 250 g ai/ha, scale 0 to 100 (0 no effect, 100 complete control)) | Plant response rating, Ducksalad [2, 15] | Plant response rating, Ducksalad [2, 16] | Plant response rating, Ducksalad [2, 17] | Plant response rating, Rice (rice (Oryza sativa); [15]) | Plant response rating, Barnyardgrass [3, 15] | Plant response rating, Sedge, Umbrella [4, 15] | Wheat plant response rating [5, 18] | Plant response rating, Wheat [5, 19] | Plant response rating, Wheat [5, 20] | Plant response rating, Wheat [5, 21] | Plant response rating, Crabgrass, Large [8, 20] | Plant response rating, Barnyardgrass [10, 20] | Corn plant response rating (corn (Zea mays); [18]) | Plant response rating, Corn (corn (Zea mays); [20]) | Plant response rating, Corn (corn (Zea mays); [21]) | Plant response rating, Foxtail, Giant [11, 20] | Plant response rating, Foxtail, Giant [11, 21]
25: Plant response rating, Flood, Rice (rice (Oryza sativa))
10: Plant response rating, Rice (rice (Oryza sativa); [16]) | Plant response rating, Barnyardgrass [10, 21] | Plant response rating, Corn (corn (Zea mays); [19])
30: Plant response rating, Sedge, Umbrella [4, 16] | Plant response rating, Morningglory [7, 20]
40: Plant response rating, Sedge, Umbrella [4, 17]
60: Plant response rating, Flood, Sedge, Umbrella [4] | Plant response rating, Morningglory [7, 21] | Plant response rating, Velvetleaf [9, 20] | Plant response rating, Velvetleaf [9, 21] | Plant response rating, Foxtail, Giant [11, 19]
50: Plant response rating, Flood, Ducksalad [2] | Plant response rating, Pigweed [6, 20] | Plant response rating, Crabgrass, Large [8, 21] | Barnyardgrass plant response rating [10, 18]
100: Plant response rating, Pigweed [6, 19] | Plant response rating, Pigweed [6, 21] | Velvetleaf plant response rating [9, 18] | Plant response rating, Velvetleaf [9, 19]
15: Plant response rating, Rice (rice (Oryza sativa); [17])
20: Plant response rating, Flood, Barnyardgrass [3] | Plant response rating, Barnyardgrass [3, 16] | Plant response rating, Barnyardgrass [3, 17] | Foxtail, Giant plant response rating [11, 18]
70: Crabgrass, Large plant response rating [8, 18] | Plant response rating, Barnyardgrass [10, 19]

O=C1CCCC(O)=C1C(=O)c1cnc(-c2ccsc2)n(-c2ccccc2)c1=O [Compound 56]
100: Plant response rating, Pigweed [6, 19] | Plant response rating, Pigweed [6, 21] | Plant response rating, Morningglory [7, 19] | Velvetleaf plant response rating [9, 18] | Plant response rating, Velvetleaf [9, 19] | Plant response rating, Velvetleaf [9, 21]
35: Plant response rating, Flood, Barnyardgrass [3]
50: Plant response rating, Flood, Ducksalad [2] | Plant response rating, Morningglory [7, 20] | Plant response rating, Barnyardgrass [10, 20] | Plant response rating, Corn (corn (Zea mays); [19])
40: Plant response rating, Ducksalad [2, 17] | Plant response rating, Sedge, Umbrella [4, 16]
90: Pigweed plant response rating [6, 18] | Plant response rating, Pigweed [6, 20] | Morningglory plant response rating [7, 18] | Plant response rating, Morningglory [7, 21] | Plant response rating, Crabgrass, Large [8, 19] | Plant response rating, Crabgrass, Large [8, 21] | Barnyardgrass plant response rating [10, 18] | Plant response rating, Barnyardgrass [10, 19] | Plant response rating, Barnyardgrass [10, 21] | Plant response rating, Foxtail, Giant [11, 19] | Plant response rating, Foxtail, Giant [11, 21]
60: Plant response rating, Sedge, Umbrella [4, 17]
0: Plant response rating, Barley [1, 12] | Plant response rating, Ducksalad [2, 15] | Plant response rating, Rice (rice (Oryza sativa); [15]) | Plant response rating, Rice (rice (Oryza sativa); [16]) | Wheat plant response rating [5, 18] | Plant response rating, Wheat [5, 19] | Plant response rating, Wheat [5, 20] | Plant response rating, Wheat [5, 21] | Plant response rating, Corn (corn (Zea mays); [20]) | Plant response rating, Corn (corn (Zea mays); [21])
70: Plant response rating, Foxtail, Giant [11, 20]
20: Plant response rating, Ducksalad [2, 16] | Plant response rating, Flood, Rice (rice (Oryza sativa)) | Plant response rating, Barnyardgrass [3, 17]
30: Plant response rating, Barley [1, 14] | Plant response rating, Sedge, Umbrella [4, 15]
80: Crabgrass, Large plant response rating [8, 18] | Plant response rating, Crabgrass, Large [8, 20] | Plant response rating, Velvetleaf [9, 20] | Foxtail, Giant plant response rating [11, 18]
10: Plant response rating, Barley [1, 13] | Plant response rating, Barnyardgrass [3, 15] | Corn plant response rating (corn (Zea mays); [18])
75: Plant response rating, Flood, Sedge, Umbrella [4]
15: Plant response rating, Rice (rice (Oryza sativa); [17]) | Plant response rating, Barnyardgrass [3, 16]
